The record followed here is paper PMC8041284, “Tunable Methacrylamides for Covalent Ligand Directed Release Chemistry” (Journal of the American Chemical Society, 2021).

Molecules are shown by their SMILES.

The inhibition is the change of the read-out against control, counted positive when it falls.

The target in the assay is BTK (Homo sapiens, UniProt Q06187). As to the kind of experiment: biochemical. The settings on record: read-out: BTK inhibition (%), 0.75 uM BTK, […] probe 3l, 15 min preincubation.
Chain of BTK (Q06187 402-655 limits assumed): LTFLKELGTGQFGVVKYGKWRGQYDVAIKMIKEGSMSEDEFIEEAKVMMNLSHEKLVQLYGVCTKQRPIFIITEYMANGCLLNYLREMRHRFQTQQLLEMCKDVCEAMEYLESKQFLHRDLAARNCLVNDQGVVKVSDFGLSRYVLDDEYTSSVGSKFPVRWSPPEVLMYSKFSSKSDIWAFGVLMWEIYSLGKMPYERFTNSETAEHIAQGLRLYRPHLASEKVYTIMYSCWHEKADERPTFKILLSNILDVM

Take `N#Cc1c(Oc2ccc(F)c(NC(=O)Cc3cccc(C(F)(F)F)c3)c2)ccc2nc(NC(=O)C3CC3)sc12` [PCM-0215264]: the inhibition at 10 µM was 37.9%.

Regarding `Clc1ccc(N/N=C(\c2ccccc2)c2ccccn2)nc1` [PCM-0215265], the inhibition at 10 µM is 6.2%. Under `CCC(CC)(NC(=O)C(C)C)C(=O)N[C@@H](CCCN=C(N)N)C(=O)NC1(C(=O)NC(c2ccc(F)cc2)c2ccc(F)cc2)CCCC1` [PCM-0215267] stands -14.7%.

For `C1=C/COCc2cc(ccc2OCCN2CCCC2)Nc2nccc(n2)-c2cccc(c2)COC/1` [PCM-0215268], the inhibition at 10 µM came out at 71.7%. Turning to `Cc1cc(/C=C/C#N)cc(C)c1Nc1ccnc(Nc2ccc(C#N)cc2)n1` [PCM-0215269], the inhibition at 10 µM was determined as 19.3%.

On to `Cc1ccc(S(=O)(=O)Cc2nc(-c3ccc(C(=O)NCc4cccnc4)cc3)oc2C)cc1` [PCM-0215271], for which the inhibition at 10 µM is -4.6%.

As to `COc1ccc(-n2c(C)c([N+](=O)[O-])c3ccc(O)cc32)cc1` [PCM-0215272], the inhibition at 10 µM was found to be 23.4%. Under `COc1cc(N2CCC(N3CCN(C)CC3)CC2)ccc1Nc1ncnc(Nc2ccccc2S(=O)(=O)C(C)C)n1` [PCM-0215273] stands 89%; under `Cc1cc(-c2ncc(CC(=O)Nc3ccc(-c4cnccn4)cn3)cc2C)ccn1` [PCM-0215274], 1.5%. In the case of `Cc1cc(=O)oc2c(C=O)c(O)ccc12` [PCM-0215276], the inhibition at 10 µM came out at 82.6%. Under `C=CC(=O)Nc1cccc(Nc2nc(Nc3ccc(Oc4ccnc(C(=O)NC)c4)cc3)ncc2F)c1` [PCM-0215277] stands 115%; under `O=C(CSc1nc2c(c(=O)n1-c1ccccc1)SCC2)Nc1ccc(-c2ccccc2)cn1` [PCM-0215278], -8.5%; under `O=C(COc1ccc(C(=O)c2ccccc2)cc1)NC1CCN(Cc2ccccc2)CC1` [PCM-0215280], -33.2%.

`O=C(c1cccc(Cl)c1F)N1CCN(Cc2cccc(Nc3nccs3)n2)CC1` [PCM-0215281]: the inhibition at 10 µM was determined as 68.3%. Under `O=C(O)/C(Cc1ccccc1[N+](=O)[O-])=N/Nc1nc(-c2ccc(Cl)c(Cl)c2)cs1` [PCM-0215282] stands 54.8%; under `CN(C)C(=O)c1cc2cnc(Nc3ccc(N4CCNCC4)cn3)nc2n1C1CCCC1` [PCM-0215283], -7.7%; under `CCOC(=O)[C@H]1O[C@@H]1C(=O)N[C@@H](CC(C)C)C(=O)NCCC(C)C` [PCM-0215286], 14.7%.

Consider `COc1cc2ncnc(Sc3nnc(C)s3)c2cc1OC` [PCM-0215288], for which the inhibition at 10 µM stood at 5.5%. With `O=C1Cc2c([nH]c3ccc(Br)cc23)-c2ncccc2N1` [PCM-0215289], the inhibition at 10 µM is -2.1%. Under `Cc1ccc(Cl)cc1N(CC(=O)Nc1c(F)cccc1F)S(C)(=O)=O` [PCM-0215291] stands 0.8%; under `O=C(O)CC1CC(c2ccccc2)=NO1` (stereo not shown) [PCM-0215292], -2.1%; under `Cc1c(C(=O)Nc2ccc(N3CCC(N4CCOCC4)CC3)c(C#N)c2)cnn1-c1ccc(Cl)cc1` [PCM-0215293], -11.7%. Under `CCCCN(Cc1ccc(C(=O)NO)cc1)C(=O)Nc1ccccc1` [PCM-0215294] stands 23.9%; under `CN(C)C(=O)c1ccc(S(=O)(=O)c2ccc(NC(=O)[C@@](C)(O)C(F)(F)F)c(Cl)c2)cc1` [PCM-0215295], 3.1%. Under `Cc1ccc(CNc2ncnc3ccc(-c4ccc(CO)o4)cc23)o1` [PCM-0215296] stands 6.9%; under `COc1ccc(-c2cnc3c(-c4cccc5ncccc45)cnn3c2)cc1` [PCM-0215297], -2.3%.

Regarding `CCNC(=O)c1[nH]nc(-c2cc(Cl)c(O)cc2O)c1-c1ccc(OC)cc1` [PCM-0215298], the inhibition at 10 µM is 21.6%. Under `CC(C)Oc1ccc(-c2cnc3c(-c4ccnc5ccccc45)cnn3c2)cc1` [PCM-0215300] stands -1.5%. Under `O=C(c1cn(Cc2cncn2Cc2ccc(Br)cc2)cc1-c1cccc2ccccc12)N1CCOCC1` [PCM-0215301] stands -4.6%; under `CC(C)CCNC(=O)[C@H](CC(C)C)NC(=O)[C@H]1O[C@@H]1C(=O)O` [PCM-0215302], -16.2%; under `COC(=O)CNC(=O)C(=O)OC` [PCM-0215303], 3.9%. Under `CN1CCC(NC(=O)c2cc(-c3c(O)cc(O)cc3Oc3ccc([N+](=O)[O-])cc3)on2)CC1` [PCM-0215304] stands -10.8%; under `C=CC(=O)Nc1cc(Nc2nccc(-c3cn(C)c4ccccc34)n2)c(OC)cc1N(C)CCN(C)C` [PCM-0215305], 80.7%; under `Cc1cc(N2CCOCC2)ccc1Nc1nc(NC2CCCCC2)c2[nH]cnc2n1` [PCM-0215306], 33.2%. As for `O=C1/C(=C/c2cccs2)CC/C1=C\c1cccs1` [PCM-0215307], the inhibition at 10 µM turned out to be 6%.

On to `CC[C@@H]1/C=C(\C)C[C@H](C)C[C@H](OC)[C@H]2O[C@@](O)(C(=O)C(=O)N3CCCC[C@H]3C(=O)O[C@H](/C(C)=C/[C@@H]3CC[C@@H](O)[C@H](OC)C3)[C@H](C)[C@@H](O)CC1=O)[C@H](C)C[C@@H]2OC` [PCM-0215308], for which the inhibition at 10 µM amounted to 6.9%.

With `CN([C@@H](Cc1ccc(OS(=O)(=O)c2cccc3cnccc23)cc1)C(=O)N1CCN(c2ccccc2)CC1)S(=O)(=O)c1cccc2cnccc12` [PCM-0215309], the inhibition at 10 µM was 2.1%.

With `O=C(/C=C/c1ccc2ccccc2n1)c1ccncc1` [PCM-0215310], the inhibition at 10 µM came to 11.7%. For the compound `CCOC(=O)c1cnc2ccc(-c3cncc(NS(=O)(=O)c4ccccc4)c3)cn12` [PCM-0215311], the inhibition at 10 µM was -4.1%. Under `CC(C)Oc1ccc(C(=O)N[C@H](CNC(=O)CN(C)C)Cc2ccc(-c3cn4cccc([C@H](C)O)c4n3)cc2)cc1Cl` [PCM-0215312] stands -30.9%; under `CC(NC(=O)[C@H](Cc1ccccc1)NC(=O)OCc1ccccc1)C(=O)CF` (stereo partly shown) [PCM-0215313], -3.1%.

Take `CC(=O)OCOC(=O)CN(CC(=O)OCOC(C)=O)c1ccccc1OCCOc1ccccc1N(CC(=O)OCOC(C)=O)CC(=O)OCOC(C)=O` [PCM-0215314]: the inhibition at 10 µM is -27.8%. As to `COc1ccc(-n2c(SCCCN3C(=O)c4cccc5cccc(c45)C3=O)nnc2-c2ccncc2)cc1` [PCM-0215315], the inhibition at 10 µM is -9.3%. For `O=C(O)c1ccc(O)c2ncccc12` [PCM-0215316], the inhibition at 10 µM is -4.6%. `CCNC(=O)c1noc(-c2cc(Cl)c(O)cc2O)c1-c1ccc(OC)cc1` [PCM-0215317]: the inhibition at 10 µM worked out at 11.6%. Under `Cc1c(-c2ccnn2C)cc(C(=O)NCc2ccc(S(C)(=O)=O)cn2)c(=O)n1-c1cccc(C(F)(F)F)c1` [PCM-0215318] stands -3.1%; under `CCCCNc1ncc(C(=O)NCc2ccc(-n3ccnc3)cc2)c(NC2CCC(O)CC2)n1` (stereo not shown) [PCM-0215319], 2.1%; under `Cc1ccc(-c2csc(NC(=O)c3ccccc3)n2)c(C)c1` [PCM-0215320], 60.2%. Under `CN1CCCN(C(=O)c2cccc(-c3ccc(/C=C4/C(=O)Nc5ccc(Cl)cc54)o3)c2)CC1` [PCM-0215321] stands 26.9%; under `CN1CCC(COc2cnc(-c3cccc(Cn4nc(-c5cccc(C#N)c5)ccc4=O)c3)nc2)CC1` [PCM-0215322], 22.1%; under `CCn1cc(NC(=S)Nc2cc(Cl)ccc2OC)c(C(N)=O)n1` [PCM-0215323], 0%. Turning to `Cc1ccc2nc(NC(=O)CSc3nc4c(c(=O)n3-c3ccccc3)SCC4)sc2c1` [PCM-0215324], the inhibition at 10 µM came to 10.2%. Consider `CCCc1ccc(OCC(=O)N(Cc2nc(-c3cccnc3)no2)C(C)C)cc1` [PCM-0215326], for which the inhibition at 10 µM was -16.2%. Under `COCCOc1nc(-c2ccc(Cl)c(Cl)c2)n(-c2ccc(NC(=O)CCl)cc2)n1` [PCM-0215327] stands 106%. Under `CC(C)C[C@H](CC(=O)NO)C(=O)N[C@@H](Cc1ccc2ccccc2c1)C(=O)N[C@@H](C)C(=O)NCCN` [PCM-0215328] stands 18.6%; under `Cc1sc2c(c1C)C(c1ccc(Cl)cc1)=N[C@@H](CC(N)=O)c1nnc(C)n1-2` [PCM-0215329], -14.7%. Under `Cc1cc([N+](=O)[O-])ccc1NS(=O)(=O)c1cc(Cl)ccc1Cl` [PCM-0215330] stands 11.6%; under `CC(=O)N[C@@H](CC(C)C)C(=O)N[C@@H](CC(C)C)C(=O)N[C@H](C=O)CCCN=C(N)N` [PCM-0215331], 9.3%.

Turning to `COc1ccc(C[C@H](N)C(=O)N[C@H]2[C@@H](O)[C@H](n3cnc4c(N(C)C)ncnc43)O[C@@H]2CO)cc1` [PCM-0215332], the inhibition at 10 µM is -3.1%. Under `O=C(NCC1(c2nc(-c3ccccc3)cs2)CCOCC1)c1cccc(-c2noc(C(F)(F)F)n2)c1` [PCM-0215333] stands -9.3%. Take `Cc1nc(N(C)C(=O)Cc2ccc(-c3ccccn3)cc2)sc1S(N)(=O)=O` [PCM-0215334]: the inhibition at 10 µM was determined as 0.8%. In the case of `O=c1[nH]c([C@@H]2CCCN2)nc2c1oc1ccc(Cl)cc12` [PCM-0215335], the inhibition at 10 µM was -0.9%. Under `Cc1cc(C)c(S(=O)(=O)n2cc(C)cc2C)c(C)c1` [PCM-0215336] stands -13.1%; under `CCNc1nc(Nc2cc(F)c(C(=O)N3CCOCC3)cc2OC)ncc1C(F)(F)F` [PCM-0215337], -9%; under `CSc1cccc(Nc2ncc3cc(-c4c(Cl)cccc4Cl)c(=O)n(C)c3n2)c1` [PCM-0215338], -18.6%. Turning to `Cc1cc(-c2nc(-c3ccc(OC(F)(F)F)cc3)no2)nn1Cc1ccnc(N2CCN(C3CC3)CC2)c1` [PCM-0215339], the inhibition at 10 µM is -1.5%. Under `C=CS(=O)(=O)NC1CCN(C(=O)CNc2cc(I)c(Cl)cc2OC)CC1` [PCM-0215340] stands 6.2%.
